Measurements published in patent US11793845B2, “Composition for ameliorating peripheral sensory neuropathy” (KINKI UNIVERSITY, priority 2016, dated 2023).

What was measured:
Format in all cases: in vivo
[1] = system: Peripheral Sensory Neuropathy Induced by Oxaliplatin in Mice; assay: von Frey test, oxaliplatin-induced peripheral sensory neuropathy; conditions: oxaliplatin 6 mg/kg once a week alone, compared with control group; 0.16 g filament
Method: (§7) Male Balb/c mice of 6 to 7 weeks old were used. The mice were divided into three groups: a control group, an oxaliplatin administration group, and an oxaliplatin and Lentinus edodes mycelium extract administration group (oxaliplatin+Lentinus edodes mycelium extract administration group). Oxaliplatin was administered to each mouse once a day at a dose of 6 mg/kg. Further, the Lentinus edodes mycelium extract was administered to each mouse once a day at a dose of 2 g/kg.
(§8) Further, the number of times of administration was set to once a week (on Day 0, Day 7, and Day 14) for oxaliplatin and daily (from Day 0 to Day 15) for the Lentinus edodes mycelium extract in both the von Frey test and the cold plate test below.
The higher number of times of avoidance means that the mouse avoids the stimulation by the filament more. […] When the difference with the control group was determined to be significant using a significance level of 5%, the data were marked by “*”.

[2] = system: Peripheral Sensory Neuropathy Induced by Oxaliplatin in Mice; assay: cold plate test, oxaliplatin-induced peripheral sensory neuropathy; conditions: oxaliplatin 6 mg/kg once a week alone; Day 3; cold plate 10° C.
Method: as §7, §8
Oxaliplatin was administered to each mouse once a day at a dose of 6 mg/kg. Further, the Lentinus edodes mycelium extract was administered to each mouse once a day at a dose of 2 g/kg three days or six days after the administration of oxaliplatin. These groups are referred to as “Lentinus edodes mycelium extract 3-day delayed administration group” and “Lentinus edodes mycelium extract 6-day delayed administration group”, respectively.
Further, groups in which duloxetine was administered after the administration of oxaliplatin were prepared for comparison.

[3] = system: Peripheral Sensory Neuropathy Induced by Vincristine in Mice; assay: von Frey test, vincristine-induced peripheral sensory neuropathy; conditions: vincristine 0.2 mg/kg once a week alone, compared with control group; three days after the administration
From the text: (§1) The mice in the three groups in the above (1) were put in a cage and a filament having a strength of 0.16 g was pressed on the plantar surface of the leg to measure the number of times (a score) of avoidance response.
In the present test, the mice were divided into three groups by a difference in test objects. As in Example 1, male Balb/c mice of 6 to 7 weeks old were used. The mice were divided into a total of three groups, a control group, a vincristine administration group, and a vincristine and Lentinus edodes mycelium extract administration group (vincristine+Lentinus edodes mycelium extract administration group).
(§2) Vincristine was administered to each mouse once a day at a dose of 0.2 mg/kg. Further, the Lentinus edodes mycelium extract was administered to each mouse once a day at a dose of 2 g/kg.
Further, the number of times of administration was set to once a week (on Day 0, Day 7, and Day 14) for vincristine and daily (from Day 0 to Day 15) for the Lentinus edodes mycelium extract in both the von Frey test and the cold plate test below.
Evaluation was performed in the same manner as in the test with oxaliplatin in Example 1. Referring to FIG. 5, the horizontal axis indicates an elapsed time after administration (days) and the vertical axis indicates the avoidance response (scores). Open circles with a solid line represent the control group. Filled circles with a solid line represent the group in which only vincristine was administered. Open squares with a dash line represent the group in which vincristine and the Lentinus edodes mycelium extract were administered at the same time (vincristine+Lentinus edodes mycelium extract administration group). When the difference with the control group was determined to be significant using a significance level of 5%, the data were marked by “*”.
(§3) In the present test, the mice were divided into six groups by a difference in test objects. As in Example 1, male Balb/c mice of 6 to 7 weeks old were used. […]

[4] = system: Peripheral Sensory Neuropathy Induced by Vincristine in Mice; assay: cold plate test, vincristine-induced peripheral sensory neuropathy; conditions: vincristine 0.2 mg/kg once a day alone; Day 3
Method: (§4) The effect of the Lentinus edodes mycelium extract on the paresthesia to cold stimulation was tested by performing the cold plate test. The mice in the three groups in the above (1) were put on a cold plate set to 10° C. and a response time for avoidance (a latency) was measured. The shorter latency means that the mouse avoids the cold stimulation of the cold plate more.
In the present test, the mice were divided into three groups by a difference in test objects. As in Example 1, male Balb/c mice of 6 to 7 weeks old were used. The mice were divided into a total of three groups, a control group, a vincristine
administration group, and a vincristine and Lentinus edodes mycelium extract administration group (vincristine+Lentinus edodes mycelium extract administration group).
as §2
Evaluation was performed in the same manner as in the test with oxaliplatin in Example 1. Referring to FIG. 6, the horizontal axis indicates the elapsed time after administration (days) and the vertical axis indicates the avoidance response time (seconds). Open circles with a solid line represent the control group. Filled circles with a solid line represent the group in which only vincristine was administered. Open squares with a dash line represent the group in which vincristine and the Lentinus edodes mycelium extract were administered at the same time (vincristine+Lentinus edodes mycelium extract administration group). When the difference with the control group was determined to be significant using a significance level of 5%, the data were marked by “*”.
as §3

[5] = system: Peripheral Sensory Neuropathy Induced by Bortezomib in Mice; assay: von Frey test, bortezomib-induced peripheral sensory neuropathy; conditions: bortezomib 1 mg/kg once a week alone, compared with control group; three days after the administration
From the text: as §1
(§5) In the present test, the mice were divided into three groups by a difference in test objects. As in Example 1, male Balb/c mice of 6 to 7 weeks old were used. The mice were divided into a total of three groups, a control group, a bortezomib administration group, and a bortezomib and Lentinus edodes mycelium extract administration group (bortezomib+Lentinus edodes mycelium extract administration group).
(§6) Bortezomib was administered to each mouse once a day at a dose of 1 mg/kg. Further, the Lentinus edodes mycelium extract was administered to each mouse once a day at a dose of 2 g/kg.
Further, the number of times of administration was set to once a week (on Day 0, Day 7, and Day 14) for bortezomib and daily (from Day 0 to Day 15) for the Lentinus edodes mycelium extract in both the von Frey test and the cold plate test below.
Evaluation was performed in the same manner as in the test with oxaliplatin in Example 1. Referring to FIG. 7, the horizontal axis indicates an elapsed time after administration (days) and the vertical axis indicates the avoidance response (scores). Open circles with a solid line represent the control group. Filled circles with a solid line represent the group in which only bortezomib was administered. Open squares with a dash line represent the group in which bortezomib and the Lentinus edodes mycelium extract were administered at the same time (bortezomib+Lentinus edodes mycelium extract administration group). When the difference with the control group was determined to be significant using a significance level of 5%, the data were marked by “*”.
as §3

[6] = system: Peripheral Sensory Neuropathy Induced by Bortezomib in Mice; assay: cold plate test, bortezomib-induced peripheral sensory neuropathy; conditions: bortezomib 1 mg/kg once a day alone; Day 3
Method: as §4, §5, §6
Evaluation was performed in the same manner as in the test with oxaliplatin in Example 1. Referring to FIG. 8, the horizontal axis indicates the elapsed time after administration (days) and the vertical axis indicates the avoidance response time (seconds). Open circles with a solid line represent the control group. Filled circles with a solid line represent the group in which only bortezomib was administered. Open squares with a dash line represent the group in which bortezomib and the Lentinus edodes mycelium extract were administered at the same time (bortezomib+Lentinus edodes mycelium extract administration groups). When the difference with the control group was determined to be significant using a significance level of 5%, the data were marked by “*”.
as §3

Compound: O=C1[O][Pt]2([NH][C@@H]3CCCC[C@H]3[NH]2)[O]C1=O [oxaliplatin]
- avoidance response (scores), von Frey test [1]: significantly increased
- latency to the cold stimulation (avoidance response time), cold plate test [2]: significantly reduced

Compound: CC[C@]1(O)C[C@H]2CN(CCc3c([nH]c4ccccc34)[C@@](C(=O)OC)(c3cc4c(cc3OC)N(C=O)[C@H]3[C@@](O)(C(=O)OC)[C@H](OC(C)=O)[C@]5(CC)C=CCN6CC[C@]43[C@@H]65)C2)C1 [vincristine]
- avoidance response (scores), von Frey test [3]: significantly increased
- latency to the cold stimulation (avoidance response time), cold plate test [4]: significantly reduced

Compound: CC(C)C[C@H](NC(=O)[C@H](Cc1ccccc1)NC(=O)c1cnccn1)B(O)O [bortezomib]
- avoidance response (scores), von Frey test [5]: significantly increased
- latency to the cold stimulation (avoidance response time), cold plate test [6]: significantly reduced
